The values that follow are results of earlier work, collected in patent publication US20180117080A1, “COMPOSITIONS AND METHODS FOR TREATING SKIN CONDITIONS” (priority 2015, published 2018).

For `[Cl-].[K+]` [KCl, Potassium Chloride], the “g/L Water Solubility 20c” value is recorded as 344 g/L.
